Columns and labels:
Assay type in all cases: biochemical
Human plasma kallikrein = Human plasma kallikrein (Homo sapiens (Human), UniProt P03952); experiment: Determination of the IC50 for plasma kallikrein (fluorogenic substrate H-DPro-Phe-Arg-AFC); settings: 37° C., read-out: IC50 (human PKaI)
Experimental: Determination of the IC50 for Plasma Kallikrein
(§1) Human plasma kallikrein (Protogen) was incubated at 37° C. with the fluorogenic substrate H-DPro-Phe-Arg-AFC and various concentrations of the test compound. Residual enzyme activity (initial rate of reaction) was determined by measuring the change in […] at 410 nm and the IC50 value for the test compound was determined.

Factor XIIa = Factor XIIa (Homo sapiens (Human), UniProt P00748); experiment: Determination of enzyme selectivity, Factor XIIa; settings: substrate at Km concentration
Experimental: Determination of Enzyme Selectivity
Human serine protease enzymes plasmin, thrombin, trypsin, Factor Xa and Factor XIIa were assayed for enzymatic activity using an appropriate fluorogenic substrate. Protease activity was measured by monitoring the accumulation of liberated fluorescence from the substrate over 5 minutes. The linear rate of fluorescence increase per minute was expressed as percentage (%) activity. The Km for the cleavage of each substrate was determined by standard transformation of the Michaelis-Menten equation.

Human KLK1 = Human KLK1 (Homo sapiens (Human), UniProt P06870); experiment: Determination of the IC50 for KLK1 (fluorogenic substrate H-DVal-Leu-Arg-AFC); settings: 37° C.
Experimental: Determination of the IC50 for KLK1
as §1, with “KLK1 (Callbiochem)” for “plasma kallikrein (Protogen)”, “H-DVal-Leu-Arg-AFC” for “H-DPro-Phe-Arg-AFC”

Sequence of Factor XIIa (P00748 373-615): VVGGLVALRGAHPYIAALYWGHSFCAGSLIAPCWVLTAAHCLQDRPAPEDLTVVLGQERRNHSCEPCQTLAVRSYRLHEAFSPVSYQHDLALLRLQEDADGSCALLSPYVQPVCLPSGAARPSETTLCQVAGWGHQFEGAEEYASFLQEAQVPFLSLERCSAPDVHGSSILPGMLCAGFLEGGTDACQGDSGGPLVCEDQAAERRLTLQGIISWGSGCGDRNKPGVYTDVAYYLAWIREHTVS
Sequence of Human plasma kallikrein (P03952 391-638): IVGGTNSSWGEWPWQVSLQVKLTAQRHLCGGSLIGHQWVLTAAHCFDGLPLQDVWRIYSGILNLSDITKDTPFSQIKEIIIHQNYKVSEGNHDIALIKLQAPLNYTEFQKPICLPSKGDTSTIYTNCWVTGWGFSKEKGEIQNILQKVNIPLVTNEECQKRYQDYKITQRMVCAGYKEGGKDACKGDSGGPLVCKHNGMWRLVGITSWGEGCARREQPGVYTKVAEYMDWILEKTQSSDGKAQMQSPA
Sequence of Human plasma kallikrein (P03952 20-390 partner): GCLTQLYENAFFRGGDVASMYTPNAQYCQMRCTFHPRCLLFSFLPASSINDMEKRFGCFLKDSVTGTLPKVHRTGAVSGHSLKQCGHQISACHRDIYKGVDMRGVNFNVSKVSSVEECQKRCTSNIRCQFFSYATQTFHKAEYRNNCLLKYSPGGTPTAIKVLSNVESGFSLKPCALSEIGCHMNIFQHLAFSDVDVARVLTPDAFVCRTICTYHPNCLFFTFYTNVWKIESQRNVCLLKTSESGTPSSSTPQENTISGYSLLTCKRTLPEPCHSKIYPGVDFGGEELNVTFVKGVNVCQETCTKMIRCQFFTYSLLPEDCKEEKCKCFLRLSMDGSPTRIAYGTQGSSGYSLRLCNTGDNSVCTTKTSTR
Sequence of Human KLK1 (P06870 25-262): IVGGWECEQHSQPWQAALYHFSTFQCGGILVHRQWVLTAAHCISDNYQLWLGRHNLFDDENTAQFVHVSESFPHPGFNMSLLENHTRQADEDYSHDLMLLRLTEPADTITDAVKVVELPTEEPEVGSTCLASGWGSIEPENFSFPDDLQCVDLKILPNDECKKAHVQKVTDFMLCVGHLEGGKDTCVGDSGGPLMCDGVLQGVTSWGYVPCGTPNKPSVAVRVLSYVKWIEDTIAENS

Structure (SMILES)	IC50 (Human plasma kallikrein)	IC50 (Factor XIIa)	IC50 (Human KLK1)
CCn1c(C(=O)NCc2ccc3c(N)nccc3c2)cc(C)c1Cc1ccc(N2CCCC2)nc1 [Example 30, 1-Ethyl-4-methyl-5-(6-pyrrolidin-1-yl-pyridin-3-ylmethyl)-1H-pyrrole-2-carboxylic acid (1-amino-isoquinolin-6-ylmethyl)-amide]	1.47 µM	> 10000 nM	5.75 µM
Nc1nccc2cc(CNC(=O)c3cn(Cc4ccc(N5CCC(F)(F)C5)nc4)nc3C(F)(F)F)ccc12 [Example 57, 1-[6-(3,3-Difluoro-pyrrolidin-1-yl)-pyridin-3-ylmethyl]-3-trifluoromethyl-1H-pyrazole-4-carboxylic acid (1-amino-isoquinolin-6-ylmethyl)-amide]	0.0149 µM	> 10000 nM	> 10 µM
O=C(NCc1cnc2[nH]ccc2c1)c1cnn(Cc2cccc(Oc3ccccc3)c2)c1 [Example 108, 1-(3-Phenoxy-benzyl)-1H-pyrazole-4-carboxylic acid (1H-pyrrolo[2,3-b]pyridin-5-ylmethyl)-amide]	22 µM	> 40000 nM	20.6 µM
O=C(NCc1cnc2[nH]ccc2c1)c1cnn(Cc2ccc(COc3cccc(F)n3)cc2)c1 [Example 109, 1-[4-(6-Fluoro-pyridin-2-yloxymethyl)-benzyl]-1H-pyrazole-4-carboxylic acid (1H-pyrrolo[2,3-b]pyridin-5-ylmethyl)-amide]	4.2 µM	> 40000 nM	> 40 µM
Cc1nc(C)c(N(C)Cc2ccc(Cn3cc(C(=O)NCc4cnc5[nH]ccc5c4)cn3)cc2)s1 [Example 105, 1-(4-{[(2,4-Dimethyl-thiazol-5-yl)-methyl-amino]-methyl}-benzyl)-1H-pyrazole-4-carboxylic acid (1H-pyrrolo[2,3-b]pyridin-5-ylmethyl)-amide]	17 µM	> 40000 nM	> 40 µM
Cc1cnn(Cc2ccc(Cn3cc(C(=O)NCc4c(C)nc5[nH]ccc5c4C)cn3)cc2)c1 [Example 118, 1-[4-(4-Methyl-pyrazol-1-ylmethyl)-benzyl]-1H-pyrazole-4-carboxylic acid (4,6-dimethyl-1H-pyrrolo[2,3-b]pyridin-5-ylmethyl)-amide]	0.014 µM	> 40000 nM	> 40 µM
O=C(NCc1cnc2[nH]ccc2c1)c1cnn(Cc2ccc(Oc3ccccn3)cc2)c1 [Example 107, 1-[4-(Pyridin-2-yloxy)-benzyl]-1H-pyrazole-4-carboxylic acid (1H-pyrrolo[2,3-b]pyridin-5-ylmethyl)-amide]	2.3 µM	> 40000 nM	38.1 µM
CCn1c(C(=O)NCc2ccc3c(N)nccc3c2)cc(C)c1Cc1csc(-c2ccccc2)n1 [Example 29, 1-Ethyl-4-methyl-5-(2-phenyl-thiazol-4-ylmethyl)-1H-pyrrole-2-carboxylic acid (1-amino-isoquinolin-6-ylmethyl)-amide]	0.62 µM	–	> 10 µM
COc1cc(Cn2cc(C(=O)NCc3ccc4c(N)nccc4c3)c(C3CC3)n2)cnc1N1CCCC1 [Example 25, 3-Cyclopropyl-1-(5-methoxy-6-pyrrolidin-1-yl-pyridin-3-ylmethyl)-1H-pyrazole-4-carboxylic acid (1-amino-isoquinolin-6-ylmethyl)-amide]	0.00731 µM	–	2.21 µM
COCCN(C)c1ccc(Cn2cc(C(=O)NCc3ccc4c(N)nccc4c3)c(C3CC3)n2)cn1 [Example 86, 3-Cyclopropyl-1-{6-[(2-methoxy-ethyl)-methyl-amino]-pyridin-3-ylmethyl}-1H-pyrazole-4-carboxylic acid (1-amino-isoquinolin-6-ylmethyl)-amide]	0.0561 µM	–	8.79 µM
Cc1nc2[nH]ccc2c(C)c1CNC(=O)c1cn(Cc2ccc(Cn3ccccc3=O)cc2)nc1C(F)(F)F [Example 8, 1-[4-(2-Oxo-2H-pyridin-1-ylmethyl)-benzyl]-3-trifluoromethyl-1H-pyrazole-4-carboxylic acid (4,6-dimethyl-1H-pyrrolo[2,3-b]pyridin-5-ylmethyl)-amide]	0.00372 µM	–	> 10 µM
Nc1nccc2cc(CNC(=O)c3cn(Cc4ccc(N5CCC(F)(F)C5)nc4)nc3C3CC3)ccc12 [Example 87, 3-Cyclopropyl-1-[6-(3,3-difluoro-pyrrolidin-1-yl)-pyridin-3-ylmethyl]-1H-pyrazole-4-carboxylic acid (1-amino-isoquinolin-6-ylmethyl)-amide]	0.0232 µM	–	6.46 µM

Second part, the compound after the results:

IC50 (Human plasma kallikrein)	IC50 (Factor XIIa)	IC50 (Human KLK1)	Structure (SMILES)
0.00168 µM	> 10000 nM	8.05 µM	Cc1cnn(Cc2ccc(Cn3cc(C(=O)NCc4ccc5c(N)nccc5c4)c(C(F)F)n3)cc2)c1 [Example 39, 3-Difluoromethyl-1-[4-(4-methyl-pyrazol-1-ylmethyl)-benzyl]-1H-pyrazole-4-carboxylic acid (1-amino-isoquinolin-6-ylmethyl)-amide]
0.0637 µM	> 10000 nM	> 10 µM	CCn1c(C(=O)NCc2ccc3c(N)nccc3c2)cc(C)c1Cc1ccc(Cn2cc(C)cn2)cc1 [Example 28, 1-Ethyl-4-methyl-5-[4-(4-methyl-pyrazol-1-ylmethyl)-benzyl]-1H-pyrrole-2-carboxylic acid (1-amino-isoquinolin-6-ylmethyl)-amide]
0.142 µM	> 40000 nM	18.2 µM	Cc1cnn(Cc2ccc(Cn3nc(C)c(C(=O)NCc4ccc5c(N)nccc5c4)c3C)cc2)c1 [Example 34, 3,5-Dimethyl-1-[4-(4-methyl-pyrazol-1-ylmethyl)-benzyl]-1H-pyrazole-4-carboxylic acid (1-amino-isoquinolin-6-ylmethyl)-amide]
0.00462 µM	> 10000 nM	5.97 µM	Cc1cnn(Cc2ccc(Cn3cc(C(=O)NCc4ccc5c(N)nccc5c4)c(C4CCC4)n3)cc2)c1 [Example 14, 3-Cyclobutyl-1-[4-(4-methyl-pyrazol-1-ylmethyl)-benzyl]-1H-pyrazole-4-carboxylic acid (1-amino-isoquinolin-6-ylmethyl)-amide]
0.217 µM	> 10000 nM	7.17 µM	Cc1cnn(Cc2ccc(Cn3cc(C(=O)NCc4ccc5[nH]ncc5c4)c(C(F)(F)F)n3)cc2)c1 [Example 111, 1-[4-(4-Methyl-pyrazol-1-ylmethyl)-benzyl]-3-trifluoromethyl-1H-pyrazole-4-carboxylic acid (1H-indazol-5-ylmethyl)-amide]
0.177 µM	> 10000 nM	> 10 µM	Cc1cnn(Cc2ccc(Cn3cc(C(=O)NCc4cnc5[nH]ccc5c4)nn3)cc2)c1 [Example 115, 1-[4-(4-Methyl-pyrazol-1-ylmethyl)-benzyl]-1H-[1,2,3]triazole-4-carboxylic acid (1H-pyrrolo[2,3-b]pyridin-5-ylmethyl)-amide]
0.545 µM	> 10000 nM	> 10 µM	Cc1cnn(Cc2ccc(Cn3cc(C(=O)NCc4cccc5[nH]ccc45)c(C(F)(F)F)n3)cc2)c1 [Example 123, 1-[4-(4-Methyl-pyrazol-1-ylmethyl)-benzyl]-3-trifluoromethyl-1H-pyrazole-4-carboxylic acid (1H-indol-4-ylmethyl)-amide]
0.00127 µM	> 10000 nM	7.84 µM	COCc1nn(Cc2ccc(Cn3cc(C)cn3)cc2)cc1C(=O)NCc1ccc2c(N)nccc2c1 [Example 38, 3-Methoxymethyl-1-[4-(4-methyl-pyrazol-1-ylmethyl)-benzyl]-1H-pyrazole-4-carboxylic acid (1-amino-isoquinolin-6-ylmethyl)-amide]
0.0792 µM	> 10000 nM	3.81 µM	CCOc1ccc(Cn2cc(C(=O)NCc3ccc4c(N)nccc4c3)c(C(F)(F)F)n2)cn1 [Example 55, 1-(6-Ethoxy-pyridin-3-ylmethyl)-3-trifluoromethyl-1H-pyrazole-4-carboxylic acid (1-amino-isoquinolin-6-ylmethyl)-amide]
–	> 40000 nM	–	Cc1nc(C)c(N(C)Cc2ccc(Cn3cc(C(=O)NCc4ccc5c(N)nccc5c4)cn3)cc2)s1 [Example 46, 1-(4-{[(2,4-Dimethyl-thiazol-5-yl)-methyl-amino]-methyl}-benzyl)-1H-pyrazole-4-carboxylic acid (1-amino-isoquinolin-6-ylmethyl)-amide]
4.01 µM	–	> 10 µM	Cc1cnn(Cc2ccc(Cn3cc(C(=O)NCc4ccnc5[nH]ccc45)c(C(F)(F)F)n3)cc2)c1 [Example 125, 1-[4-(4-Methyl-pyrazol-1-ylmethyl)-benzyl]-3-trifluoromethyl-1H-pyrazole-4-carboxylic acid (1H-pyrrolo[2,3-b]pyridin-4-ylmethyl)-amide]
0.00092 µM	–	> 1 µM	Nc1nccc2cc(CNC(=O)c3cn(Cc4ccc(Cn5cccn5)cc4)nc3C(F)(F)F)ccc12 [Example 76, 1-(4-Pyrazol-1-ylmethyl-benzyl)-3-trifluoromethyl-1H-pyrazole-4-carboxylic acid (1-amino-isoquinolin-6-ylmethyl)-amide]
0.0323 µM	–	4.74 µM	Nc1nccc2cc(CNC(=O)c3cn(Cc4ccc(N5CCC(CO)C5)nc4)nc3C(F)(F)F)ccc12 (centres unmarked) [Example 69, 1-[6-(3-Hydroxymethyl-pyrrolidin-1-yl)-pyridin-3-ylmethyl]-3-trifluoromethyl-1H-pyrazole-4-carboxylic acid (1-amino-isoquinolin-6-ylmethyl)-amide]

Reference: patent US9533987B2, “Heterocyclic derivates” (KALVISTA PHARMACEUTICALS LIMITED, priority 2013, dated 2017)
